US20260174744A1, “COMPOUNDS, COMPOSITIONS, AND METHODS OF TREATING RNA VIRAL INFECTIONS” (priority 2024, published 2026)
pEC50: −log10 of the molar value.

Legend:
[1] = test system: SARS-CoV-2 variants, Alphacoronavirus, Betacoronavirus, HCV, NoV, IAV, IAB
[2] = test system: SARS-CoV-2 variants, Alphacoronavirus, Betacoronavirus, HCV, NoV, IAV, IAB; assay: organism not typed; settings: read-out: EC50 against remaining viruses

In the case of `Cc1c(-c2ccc(O)cc2)n(Cc2ccc(OCCN3CCCCC3)cc2)c2ccc(O)cc12` [Pipendoxifene], the “potency against six SARS-CoV-2 variants and two coronaviruses” value [1] was “submicromolar potency” and the pEC50 [2] was 5.10 to 5.52.
